Assay results published in patent publication US7728028B2, “Substituted imidazoline compounds” (Gruenenthal GmbH, priority 2005, dated 2010).

Biological target: T1, human μ-opiate receptor (Homo sapiens, UniProt P35372)
T1 construct: purchased PerkinElmer Life Sciences, Zaventem, Belgium RB-HOM; host or cells: CHO-K1 cells (recombinant expression; membrane preparation)
Experiment: Affinity for the human μ-opiate receptor ([3H]-naloxone displacement, SPA)
Details: Table 1, aldehydes; test substance 1 μmole/l; inhibition of specific [3H]-naloxone binding; CHO-K1 membranes; read-out: μ-Opioid receptor, % inhibition [1 μM]
Method in brief: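 CHO-K1 membranes expressing the receptor, incubated 90 min at room temperature with 1 nmol/l [3H]-naloxone and WGA-SPA beads in 50 mmol/l Tris-HCl with 0.06% BSA. Non-specific binding defined with 100 μmol/l naloxone. Value is % inhibition of specific binding at 1 μmol/l test substance.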

T1 sequence (P35372 whole entry): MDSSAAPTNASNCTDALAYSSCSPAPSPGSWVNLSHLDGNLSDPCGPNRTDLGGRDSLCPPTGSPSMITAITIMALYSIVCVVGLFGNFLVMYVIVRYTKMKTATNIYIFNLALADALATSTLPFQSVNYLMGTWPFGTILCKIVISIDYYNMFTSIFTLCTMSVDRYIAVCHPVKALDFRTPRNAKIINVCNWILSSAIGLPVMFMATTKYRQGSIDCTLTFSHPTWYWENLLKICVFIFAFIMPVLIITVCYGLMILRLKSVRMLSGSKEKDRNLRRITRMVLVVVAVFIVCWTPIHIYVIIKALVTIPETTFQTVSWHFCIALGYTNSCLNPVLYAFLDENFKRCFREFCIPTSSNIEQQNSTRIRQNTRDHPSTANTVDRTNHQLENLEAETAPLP

Row | Compound | inhibition at 1 µM [%]
1 | CN(C)C(c1ccc(Cl)cc1)C1CCC(C=O)CC1 (stereo not drawn) [Example 9c, 4-[(4-chlorophenyl)-dimethylaminomethyl]-cyclohexane-carbaldehyde] | 45
2 | CN(C)C(c1cccs1)C1CCC(C=O)CC1 (stereo not drawn) [Example 9d, 4-(dimethylaminothiophen-2-yl-methyl)-cyclohexane carbaldehyde] | 69
3 | CN(C)C(c1cccs1)C1CCC(CC=O)CC1 (stereo not drawn) [Example 10d, {4-[dimethylamino-thiophen-2-yl-methyl]-cyclohexyl}-acetaldehyde] | 79

Same assay, conditions: Table 2, Examples 11-161; test substance 1 μmole/l; inhibition of specific [3H]-naloxone binding; CHO-K1 membranes; read-out: μ-Opioid receptor, % inhibition [1 μM]

Row | Compound | inhibition at 1 µM [%]
4 | CCCCN1C=NC(CSCc2ccccc2)(C(=O)OC)C1C1CCC(C(c2cccc(F)c2)N(C)C)CC1 (stereo not drawn) [Example 67, 4-benzylsulfanylmethyl-1-butyl-5-{4-[dimethylamino-(3-fluorophenyl)-methyl]-cyclohexyl}-4,5-dihydro-1H-imidazole-4-carboxylic acid methyl ester] | 88
5 | CCCCN1C=NC(CSC)(C(=O)OC)C1C1CCC(C(c2cccc(F)c2)N(C)C)CC1 (stereo not drawn) [Example 66, 1-butyl-5-{4-[dimethylamino-(3-fluorophenyl)-methyl]-cyclohexyl}-4-methylsulfanylmethyl-4,5-dihydro-1H-imidazole-4-carboxylic acid methyl ester] | 89
6 | CCCN1C=NC(CCC(=O)OC)(C(=O)OC)C1CC1CCC(C(c2ccc(Cl)cc2)N(C)C)CC1 (stereo not drawn) [Example 61, 5-{4-[(4-chlorophenyl)-dimethylaminomethyl]-cyclohexylmethyl}-4-(2-methoxycarbonylethyl)-1-propyl-4,5-dihydro-1H-imidazole-4-carboxylic acid methyl ester] | 93
7 | CCCCN1C=NC(CSCc2ccccc2)(C(=O)OC)C1C1CCC(C(c2ccc(Cl)cc2)N(C)C)CC1 (stereo not drawn) [Example 69, 4-benzylsulfanylmethyl-1-butyl-5-{4-[(4-chlorophenyl)-dimethylaminomethyl]-cyclohexyl}-4,5-dihydro-1H-imidazole-4-carboxylic acid methyl ester] | 95
8 | COC(=O)C1(CCSC)N=CN(Cc2ccccc2)C1CC1CCC(C(c2cccc(F)c2)N(C)C)CC1 (stereo not drawn) [Example 139, 1-benzyl-5-{4-[dimethylamino-(3-fluorophenyl)-methyl]-cyclohexylmethyl}-4-(2-methylsulfanyl-ethyl)-4,5-dihydro-1H-imidazole-4-carboxylic acid methyl ester] | 100
9 | COC(=O)C1(CCSC)N=CN(Cc2ccccc2)C1CC1CCC(C(c2ccc(F)cc2)N(C)C)CC1 (stereo not drawn) [Example 142, 1-benzyl-5-{4-[dimethylamino-(4-fluorophenyl)-methyl]-cyclohexylmethyl}-4-(2-methylsulfanyl-ethyl)-4,5-dihydro-1H-imidazole-4-carboxylic acid methyl ester] | 97
10 | CCCC1(C(=O)OC)N=CN(C2CCCCC2)C1CC1CCC(C(CCc2ccccc2)N(C)C)CC1 (stereo not drawn) [Example 108, 1-cyclohexyl-5-[4-(1-dimethylamino-3-phenylpropyl)-cyclohexylmethyl]-4-propyl-4,5-dihydro-1H-imidazole-4-carboxylic acid methyl ester] | 86
11 | COC(=O)C1(CSCc2ccccc2)N=CN(Cc2ccccc2)C1C1CCC(C(c2ccc(Cl)cc2)N(C)C)CC1 (stereo not drawn) [Example 98, 1-benzyl-4-benzylsulfanylmethyl-5-{4-[(4-chlorophenyl)-dimethylaminomethyl]-cyclohexyl}-4,5-dihydro-1H-imidazole-4-carboxylic acid methyl ester] | 95
12 | CCCCN1C=NC(C(=O)OC)(C(C)CC)C1CC1CCC(C(c2cccc(F)c2)N(C)C)CC1 (stereo not drawn) [Example 73, 1-butyl-4-sec-butyl-5-{4-[dimethylamino-(3-fluorophenyl)-methyl]-cyclohexylmethyl}-4,5-dihydro-1H-imidazole-4-carboxylic acid methyl ester] | 92
13 | CCCN1C=NC(CCC)(C(=O)OC)C1CC1CCC(C(c2cccc(F)c2)N(C)C)CC1 (stereo not drawn) [Example 111, 5-{4-[dimethylamino-(3-fluorophenyl)-methyl]-cyclohexylmethyl}-1,4-dipropyl-4,5-dihydro-1H-imidazole-4-carboxylic acid methyl ester] | 90
14 | COC(=O)CCC1(C(=O)OC)N=CN(CCc2ccccc2)C1C1CCC(C(c2cccc(F)c2)N(C)C)CC1 (stereo not drawn) [Example 91, 5-{4-[dimethylamino-(3-fluorophenyl)-methyl]-cyclohexyl}-4-(2-methoxycarbonylethyl)-1-phenethyl-4,5-dihydro-1H-imidazole-4-carboxylic acid methyl ester] | 85
15 | COC(=O)CCC1(C(=O)OC)N=CN(Cc2ccccc2)C1CC1CCC(C(c2cccc(F)c2)N(C)C)CC1 (stereo not drawn) [Example 85, 1-benzyl-5-{4-[dimethylamino-(3-fluorophenyl)-methyl]-cyclohexylmethyl}-4-(2-methoxycarbonylethyl)-4,5-dihydro-1H-imidazole-4-carboxylic acid methyl ester] | 95
16 | CCCCC1(C(=O)OC)N=CN(CCC)C1CC1CCC(C(c2ccc(Cl)cc2)N(C)C)CC1 (stereo not drawn) [Example 28, 4-butyl-5-{4-[(4-chlorophenyl)-dimethylaminomethyl]-cyclohexylmethyl}-1-propyl-4,5-dihydro-1H-imidazole-4-carboxylic acid methyl ester] | 97
17 | CCCC1(C(=O)OC)N=CN(Cc2ccccc2)C1CC1CCC(C(c2ccc(F)cc2)N(C)C)CC1 (stereo not drawn) [Example 141, 1-benzyl-5-{4-[dimethylamino-(4-fluorophenyl)-methyl]-cyclohexylmethyl}-4-propyl-4,5-dihydro-1H-imidazole-4-carboxylic acid methyl ester] | 98
18 | CCCCN1C=NC(CSCc2ccccc2)(C(=O)OC)C1CC1CCC(C(CCc2ccccc2)N(C)C)CC1 (stereo not drawn) [Example 79, 4-benzylsulfanylmethyl-1-butyl-5-[4-(1-dimethylamino-3-phenylpropyl)-cyclohexylmethyl]-4,5-dihydro-1H-imidazole-4-carboxylic acid methyl ester] | 79
19 | COC(=O)C1(C)N=CN(C2CCCCC2)C1CC1CCC(C(c2ccc(F)cc2)N(C)C)CC1 (stereo not drawn) [Example 107, 1-cyclohexyl-5-{4-[dimethylamino-(4-fluorophenyl)-methyl]-cyclohexylmethyl}-4-methyl-4,5-dihydro-1H-imidazole-4-carboxylic acid methyl ester] | 87
20 | COC(=O)C1(Cc2ccc(Cl)cc2)N=CN(Cc2ccccc2)C1CC1CCC(C(c2ccc(Cl)cc2)N(C)C)CC1 (stereo not drawn) [Example 113, 1-benzyl-4-(4-chlorobenzyl)-5-{4-[(4-chlorophenyl)-dimethylaminomethyl]-cyclohexylmethyl}-4,5-dihydro-1H-imidazole-4-carboxylic acid methyl ester] | 92
21 | CCCN1C=NC(CCC(=O)OC)(C(=O)OC)C1CC1CCC(C(c2ccc(F)cc2)N(C)C)CC1 (stereo not drawn) [Example 159, 5-{4-[dimethylamino-(4-fluorophenyl)-methyl]-cyclohexylmethyl}-4-(2-methoxycarbonylethyl)-1-propyl-4,5-dihydro-1H-imidazole-4-carboxylic acid methyl ester] | 79
